Patent publication US20040219202A1, “Pharmaceutical composition comprising lipids comprising a polar and a nonpolar moiety” (priority 2001, published 2004)
Entries after “also recorded” stand apart in the source; their conditions may differ.

How the values were obtained:
[1] = literature statement; cited from earlier work
[2] = test system: Panc-1 cells; experiment: Transfection of Panc-1 cells with LMDs (liposome:mu:DNA), β-galactosidase reporter assay; format: cell-based
Description: (§1) Purity of the lipids was checked by TLC or HPLC. All lipids were stored as stock solutions in anhydrous CH2Cl2, at concentrations of either 5 mg/ml or 10 mg/ml, at −80° C., under Ar. In order to prepare cationic liposomes, lipids were added to a round-bottomed flask, via syringe, under Ar, and further freshly distilled CH2Cl2 was added, if necessary, to give a concentration of around 2.5 mg/ml. Then, 4 mM HEPES pH 7.0 (1 ml) was added, and the biphasic system was swirled to mix. A liposomal suspension was created by removing the organic solvent under reduced pressure at 25° C., followed by sonication for 2-5 min. in a water bath sonicator. Doubly-distilled water was added, if necessary, to return the total volume to 1 ml. All liposomal solutions were prepared at a final concentration of 5 mg/ml. The pH of the liposomal suspension was checked by pH Boy (Camlab Ltd., Over, Cambridgeshire, UK) and adjusted to pH 7.0±0.1 with concentrated aqueous solutions of HCl and NaOH.
(§2) Liposomes were extruded (Extruder, Northern Upids, Inc., Vancouver, BC, Canada) by passing through two 100 nm polycarbonate filters (Isopore™ Membrane Filters, Millipore (UK) Ltd., Watford, Hertfordshire, UK) ten times. For each preparation, the size distribution of liposomes was measured by photon correlation spectroscopy (PCS) (Coulter® N4 Plus Submicron Particle Sizer, Beckman Coulter, High Wycombe, Buckinghamshire, UK). For phospholipid-containing liposomes, phospholipid concentrations were checked by the Stewart assay.^23 In each case, a final lipid concentration of 4.7±0.1 mg/ml was observed. For non-phospholipid containing liposomes, lipid loss was also inevitable on extrusion. For all fast-extruding liposomal suspensions, total lipid concentration was assumed to be 4.7 mg/ml. For slower extrusions, total lipid concentrations were assumed to be 4.3 mg/ml. Very slowly extruding liposomes were extruded three times only and assumed to be 4.7 mg/ml.
(§3) Plasmid DNA containing the β-galactosidase gene (pNGVL1-nt-beta-gal; 7.53 kbp) was stored as frozen aliquots at −80° C., at a concentration of 1.2 mg/ml; μ (mu) peptide (adenoviral core peptide [H2N-Met-Arg-Arg-Ala-His-His-Arg-Arg-Arg-Arg-Ala-Ser-His-Arg-Arg-Met-Arg-Gly-Gly-CO2H]) was synthesised as described previously,^7 and maintained at 4° C. in aliquots of 1 mg/ml. Mu-DNA complexes were made by adding plasmid DNA to mu in 4 mM HEPES at a ratio of 1:0.6 (w/w) with fast vortexing. LMDs were prepared by complexing mu-DNA particles with cationic liposomes (as prepared above) in a ratio of 1:12 (w/w), such that all LMDs for all formulations were substantially cationic. For each preparation, the size distribution of LMDs was measured by PCS.
Panc-1 cells were maintained in RPMI/10% FCS/1% penicillin-streptomycin (Gibco™, Invitrogen Corporation, Paisley, Scotland, UK) at 37° C./5% CO2 in a humidified atmosphere. Twenty-four hours prior to transfection, 30 000 cells per well were seeded in 48 well microtitre plates (Corning Costar, Merck Ltd., Lutterworth, Leicestershire, UK) in 500 μl medium. As a control, plasmid DNA (0.5 μg in 200 μl medium) was added to a well. As a positive control, 1.5 μl Transfast™ (Promega Corporation, Madison, Wis., USA; prepared according to the supplier's protocol) in 200 μl medium was complexed with plasmid DNA (0.5 μg) and added to a well. 5 μl (0.5 μg DNA) of LMD formulation was added to each well. All experiments were performed in quadruplicate. The plate was swirled for 30 s, and incubated for 1 h at 37° C. Medium was then removed, and 500 μl of fresh medium was added. The cells were incubated at 37° C. for a further 24 h.
Medium was aspirated from the wells and the cell layer was washed with phosphate buffered saline (PBS) (Gibco™). The cells of each well were lysed in 150 μl lysis reagent (prepared according to the supplier's protocol; β-Gal Reporter Gene Assay, Roche Diagnostics GmbH, D-68305 Mannheim, Germany) at room temperature for 30 min. […]

[3] = test system: COS-7 cells; experiment: Transfection of COS-7 cells with LMDs (liposome:mu:DNA), β-galactosidase reporter assay; format: cell-based; details: for Transfection relative to DOPE (fraction): CDAN:Helper Lipid, summary
Description: as §1, §2, §3
COS-7 cells were maintained in DMEM/10% FCS/1% penicillin-streptomycin (Gibco™) at 37° C./5% CO2 in a humidified atmosphere. Twenty-four hours prior to transfection, 10 000 cells per well were seeded in 48-well microtitre plates (Coming Costar) in 500 μl medium. Plasmid DNA and Transfast™ controls were prepared as above. 5 μl (0.5 μg DNA) of LMD formulation was added to each well. All experiments were performed in quadruplicate. The plate was swirled for 30 s, and incubated for 1 h at 37° C. Medium was then removed, and 500 μl of fresh medium was added. The cells were incubated at 37° C. for a further 24 h.
Medium was aspirated from the wells and the cell layer was washed with phosphate buffered saline (PBS) (Gibco™). The cells of each well were lysed in 150 μl lysis reagent (prepared according to the supplier's protocol; β-Gal Reporter Gene Assay, Roche Diagnostics GmbH, D-68305 Mannheim, Germany) at room temperature for 30 min. After lysis, […], 50 μl and 20 μl, of each cell suspension were used for the determination of β-galactosidase activity and for the determination of total cellular protein (to normalise results), respectively.
In the β-gal assay, 100 μl of the substrate reagent was added to 50 μl of the cell suspension in a white 96-well microplate (Coming Costar). […]

[4] = LMDs of CDAN:Helper Lipid, 1:1 liposomes, DOPC-analogues, FIG. 13
[5] = LMDs of CDAN:Helper Lipid, 1:1 liposomes, DOPE-analogues, FIG. 16
[6] = LMDs of CDAN:Helper Lipid, 2:3 liposomes, FIG. 17
[7] = LMDs of CDAN:Helper Lipid, 3:2 liposomes, FIG. 15
[8] = LMDs of CDAN:Helper Lipid, 1:1 liposomes, FIG. 14
[9] = LMDs of DOPE:Cationic Lipid, 1:1 liposomes, FIG. 21
[10] = LMDs of pure DOTAP or DOTAP-analogue liposomes, FIG. 20

CCCCCCCCCCCCC#CC#CCCCCCCCCCC(=O)NCCN(CCNC(=N)N)CCNC(=N)N [BGDA, bisguanidinium-diacetylene]
In vitro transfection in cationic liposome formulations [1]: highly efficient

CCCCCCCCCCCCCC#CCCC(=O)OC[C@H](COP(=O)([O-])OCC[N+](C)(C)C)OC(=O)CCC#CCCCCCCCCCCCCC [DO(4-yne)PC]
Transfection (β-galactosidase activity) ([2]; LMDs of CDAN:Helper Lipid, 1:1 (mol/mol) liposomes, DOPC-analogues, FIG. 12): almost complete loss of any transfection ability | Transfection (β-galactosidase activity) [3, 4]: a fall in transfection ability

CCCCCCCCCCCCCC#CCCC(=O)OC[C@H](COP(=O)(O)OCCN)OC(=O)CCC#CCCCCCCCCCCCCC [DO(4-yne)PE]
Transfection (β-galactosidase activity) ([2]; CDAN:Helper Lipid, 2:3, repeat, liposomes not fresh, LMDs fresh, FIG. 18): fallen to around that of Transfast | Transfection (β-galactosidase activity) [2, 5]: transfect well and approximately to the same degree; also recorded: all transfect equally well | Transfection (β-galactosidase activity) [2, 6]: transfect the best, up to five times better than DOPE | Transfection (β-galactosidase activity) [2, 7]: transfect very poorly | Transfection relative to DOPE (fraction) ([3]; 1:1 liposomes): about 1/3 | Fall in transfection on substituting DOPE [3, 8]: about 67%

CCCCCCCCC#CCCCCCCCC(=O)OCC(C[N+](C)(C)C)OC(=O)CCCCCCCC#CCCCCCCCC.COS(=O)(=O)[O-] (stereo not drawn) [DO(9-yne)TAP]
Transfection (β-galactosidase activity) ([2]; LMDs of Cholesterol:Cationic Lipid, 1:1 liposomes, FIG. 22): transfects as well as DOTAP | Transfection (β-galactosidase activity) [2, 9]: a small increase in transfection | Transfection (β-galactosidase activity) [3, 10]: transfects around one and-a-half times better than standard DOTAP; also recorded: transfect as well as DOTAP liposomes

CCCC#CCCCCCCCCCCCCC(=O)OC[C@H](COP(=O)(O)OCCN)OC(=O)CCCCCCCCCCCCC#CCCC [DO(14-yne)PE]
Transfection (β-galactosidase activity) [2, 5]: transfects around half as well as DOPE | Transfection (β-galactosidase activity) [2, 6]: transfects the least well out of the monoacetylenic analogues | Transfection (β-galactosidase activity) [2, 7]: transfect very poorly | Transfection relative to DOPE (fraction) ([3]; 1:1 liposomes): about 1/3 | Fall in transfection on substituting DOPE [3, 8]: about 67%

CCCC#CCCCCCCCCCCCCC(=O)OCC(C[N+](C)(C)C)OC(=O)CCCCCCCCCCCCC#CCCC.COS(=O)(=O)[O-] (stereo not drawn) [DO(14-yne)TAP]
Loss of transfection activity on replacing DOTAP ([2]; Cholesterol:Cationic Lipid, 1:1 liposomes, FIG. 22): around 30% | Transfection (β-galactosidase activity) ([2]; LMDs composed entirely of DOTAP or DOTAP-analogue liposomes, FIG. 19): a six-fold improvement on standard DOTAP; also recorded: transfect up to six times better than DOTAP; also recorded: transfects better than DOTAP | Transfection (β-galactosidase activity) [2, 9]: a seven-fold increase | Transfection (β-galactosidase activity) [3, 10]: almost total loss of transfection activity; also recorded: almost no transfection at all

CCCCCCCC/C=C\CCCCCCCC(=O)OC[C@H](COP(=O)([O-])OCC[N+](C)(C)C)OC(=O)CCCCCCC/C=C\CCCCCCCC [DOPC]
In vitro transfection in cationic liposome formulations [1]: eliminate or severely attenuate transfection | Transfection (β-galactosidase activity) [3, 4]: transfect equally well

CCCCCCCC/C=C\CCCCCCCC(=O)OCC(COP(=O)(O)OCCN)OC(=O)CCCCCCC/C=C\CCCCCCCC (stereo not drawn) [DOPE, dioleoylphosphatidylethanolamine]
Transfection (β-galactosidase activity) [2, 5]: transfect well and approximately to the same degree; also recorded: all transfect equally well | Transfection (β-galactosidase activity) [2, 6]: below that of Transfast | Transfection (β-galactosidase activity) [2, 7]: transfects around as twice as well as the nearest acetylenic analogue; also recorded: transfects better than all the monoacetylenic analogues | Transfection (β-galactosidase activity) ([3]; LMDs of CDAN:Helper Lipid, 1:1 liposomes, DOPE-analogues, FIG. 14): transfection levels are high and approximately the same; also recorded: transfect COS-7 cells very well and to a similar degree
